Data reported in ChEMBL document CHEMBL1201862, “PubChem BioAssay data set” (2004).
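Each compound was tested at five concentrations against cells in 96-well plates for 48 hours. At the GI50, growth is halved.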 Calls of active or inactive are those of the source. No stated cut-off is given here; in the data, active = GI50 up to about 1.1 µM and inactive = higher.

Assays:
Assay in all cases: DTP human tumour cell line panel, 48 h
[1] = test system: NCI-H522
[2] = test system: PC-3
[3] = test system: A498
[4] = test system: HCT-15
[5] = test system: EKVX
[6] = test system: Malme-3M
[7] = test system: UACC-62
[8] = test system: SNB-75
[9] = test system: SK-MEL-2
[10] = test system: SN12C
[11] = test system: OVCAR-3
[12] = test system: RXF 393
[13] = test system: ACHN
[14] = test system: BT-549
[15] = test system: SF-268
[16] = test system: K562
[17] = test system: NCI-H460
[18] = test system: SNB-19
[19] = test system: UO-31
[20] = test system: OVCAR-8
[21] = test system: RPMI-8226
[22] = test system: NCI-H23
[23] = test system: SW-620
[24] = test system: NCI/ADR-RES
[25] = test system: HOP-62
[26] = test system: OVCAR-5
[27] = test system: SF-295
[28] = test system: CCRF-CEM
[29] = test system: SF-539
[30] = test system: SK-OV-3
[31] = test system: T47D
[32] = test system: DU-145
[33] = test system: MCF7
[34] = test system: COLO 205
[35] = test system: SK-MEL-28
[36] = test system: MDA-MB-435
[37] = test system: OVCAR-4
[38] = test system: IGROV-1
[39] = test system: A549
[40] = test system: KM12
[41] = test system: Hs-578T
[42] = test system: HL-60
[43] = test system: HCC 2998
[44] = test system: 786-0
[45] = test system: MDA-MB-231
[46] = test system: MOLT-4
[47] = test system: LOX IMVI
[48] = test system: M14
[49] = test system: TK-10
[50] = test system: HT-29
[51] = test system: U-251
[52] = test system: SK-MEL-5
[53] = test system: NCI-H226
[54] = test system: UACC-257
[55] = test system: MDA-N
[56] = test system: HCT-116
[57] = test system: HOP-92
[58] = test system: SR

Measured: GI50

c1ccc2c(c1)ncn2CCn1ccnc1
> 100 µM: [4]
inactive: [1] > 100 µM | [2] > 100 µM | [3] > 100 µM | [5] > 100 µM | [6] > 100 µM | [7] > 100 µM | [8] > 100 µM | [9] > 100 µM | [10] > 100 µM | [11] > 100 µM | [12] > 100 µM | [13] > 100 µM | [14] > 100 µM | [15] > 100 µM | [16] > 100 µM | [17] > 100 µM | [18] > 100 µM | [19] > 100 µM | [20] > 100 µM | [21] > 100 µM | [22] > 100 µM | [23] > 100 µM | [24] > 100 µM | [25] > 100 µM | [26] > 100 µM | [27] > 100 µM | [28] > 100 µM | [29] > 100 µM | [30] > 100 µM | [31] > 100 µM | [32] > 100 µM | [33] > 100 µM | [34] > 100 µM | [35] > 100 µM | [36] > 100 µM | [37] 15.8 µM | [38] > 100 µM | [39] > 100 µM | [40] > 100 µM | [41] > 100 µM | [42] > 100 µM | [43] > 100 µM | [44] > 100 µM | [45] > 100 µM | [46] > 100 µM | [47] > 100 µM | [48] > 100 µM | [49] > 100 µM | [50] > 100 µM | [51] > 100 µM | [52] > 100 µM | [53] > 100 µM

COc1cccc(N2C(=O)CSC2c2c[nH]c3ccccc23)c1 (stereo not given)
> 100 µM: [4]
inactive: [1] 97.9 µM | [2] > 100 µM | [5] > 100 µM | [7] > 100 µM | [8] > 100 µM | [54] > 100 µM | [10] > 100 µM | [55] > 100 µM | [56] > 100 µM | [11] > 100 µM | [12] > 100 µM | [14] > 100 µM | [15] > 100 µM | [16] > 100 µM | [17] > 100 µM | [18] > 100 µM | [19] > 100 µM | [20] > 100 µM | [22] > 100 µM | [57] 66.1 µM | [23] > 100 µM | [25] > 100 µM | [26] > 100 µM | [27] > 100 µM | [28] > 100 µM | [30] > 100 µM | [31] > 100 µM | [32] > 100 µM | [33] > 100 µM | [34] > 100 µM | [35] > 100 µM | [36] > 100 µM | [37] 73.6 µM | [38] > 100 µM | [40] > 100 µM | [42] > 100 µM | [43] > 100 µM | [45] > 100 µM | [46] > 100 µM | [58] > 100 µM | [47] > 100 µM | [48] > 100 µM | [49] > 100 µM | [50] > 100 µM | [51] > 100 µM | [52] > 100 µM
